In patent US20160243080A1, “FORMULATIONS OF ANGIOTENSIN RECEPTOR BLOCKERS” (priority 2015, published 2016):
“Also recorded” adds a separate entry of the source. Read-outs that look alike come from different tables or passages of the source.

Legend:
[1] = tested on: alpha-smooth muscle actin (α-SMA); assay: Proliferation and angiogenesis markers in aged diabetic pig wounds; format: in vivo
From the text: (§1) An increase in a-SMA and phosphorylated VEGF Receptor 2 was also observed. Finally, the inventors have previously reported the presence of a functional mitochondrial angiotensin system within the mitochondria that played a role in mitochondrial bioenergetics regulation.

[2] = tested on: VEGF Receptor 2; assay: as above; format: in vivo
From the text: as §1

[3] = tested on: p42/44 MAPK; assay: as above; format: in vivo
From the text: as §1

[4] = tested on: healing skin of aged diabetic pigs; assay: Masson's trichrome and H&E staining of skin sections from aged diabetic pigs; format: in vivo, pig
From the text: Using Mason Trichrome (FIG. 22, panels A-H) and H&E stains (FIG. 22, panel I). Collagen content and other histological changes in healing skin were examined. Tensiometry was employed to quantify differences in tensile strength between placebo and valsartan treated wounds.

[5] = tested on: wounds of AT2R^−/− mice; assay: Wound healing in AT2R^−/− mice; format: in vivo, mouse
From the text: Pharmacologically, ARBs and ACE inhibitors differ on their mechanism of action and the level at which they block RAS. While ARBs block RAS distally at the AT1R level, ACEi block the conversion of Angiotensin I to Angiotensin II and thereby diminishing available Angiotensin II to bind to either AT1R or AT2Rs. […] Collagen is a marker for assessing skin strength.

[6] = tested on: AT2R mRNA; assay: mRNA expression in treated mouse wounds; format: in vivo
[7] = tested on: mitochondrial Cox IV; assay: Mitochondrial content in aged diabetic pig wounds; format: in vivo
From the text: as §1

[8] = tested on: wounds of diabetic (Leprdb) mice; assay: Mouse model wound healing experiments, planimetric wound closure; format: in vivo; conditions: topical, applied from 7 days after wounding (proliferation/remodeling phase)
From the text: In FIG. 11, the “ratio” (y-axis) reflects the percentage of wound closure as compared to the wound size on day 7 in the same animal.

[9] = tested on: healing skin of aged diabetic pigs; assay: Tensiometry of healed pig skin; format: in vivo; conditions: vs placebo
Protocol: At termination, an approximately 8 mm×16 mm tensiometry sample was collected from the dorsal side of each wound site that spanned the cranial to caudal aspect of the wound for analysis. This procedure was performed and data maintained by sponsor personnel. No details of analysis or results were included in this in-life report. […] Using Mason Trichrome (FIG. 22, panels A-H) and H&E stains (FIG. 22, panel I). Collagen content and other histological changes in healing skin were examined. Tensiometry was employed to quantify differences in tensile strength between placebo and valsartan treated wounds.

[10] = format: in vivo; conditions: body weight, blood pressure, blood glucose, serum chemistry and hematology
From the text: Prior to this study, selected male animals had been castrated and fitted with vascular access ports (VAP) for diabetic induction. After these animals had fully recovered from VAP procedures, diabetes was chemically-induced using alloxan. Following induction, the glucose levels of the animals was monitored and regulated with Vetsulin (or equivalent). A glucometer and/or other appropriate device was used to determine glucose levels of the animals. VAP procedures, diabetic induction, and recovery periods were conducted under a separate SRC standard protocol prior to the initiation of this study. Glucose levels of all study animals were monitored and regulated at least once daily during the study to keep within targeted glucose range (target 200 to 600 mg/dL). Blood pressure was determined for each animal on Days 7, 8, 18, and 57 (prior to termination).
General in-cage/pen observations for mortality/moribundity were made at least daily.
Animals were weighed once during acclimation (Day −1) and again prior to termination (Day 57).
Day −5 (acclimation), Day 10 (pre-dose), Day 18 (pre-dose) and Day 57 (prior to termination); blood samples for CBC and serum chemistries were collected for clinical pathology analysis from each animal and analyzed by SRC. • Hematology: Blood samples (3 mL/animal) were collected from all animals. K3EDTA was used as anticoagulant. […]

[11] = cited from earlier work
[12] = tested on: TGFβ3 mRNA; assay: mRNA expression in treated mouse wounds; format: in vivo; conditions: P<0.05
[13] = tested on: Smad1; assay: Immunohistochemistry of Smads in wounds of aged diabetic pigs; format: in vivo; conditions: pig wounds, vs placebo
From the text: (§2) Although not completely characterized, wound healing is greatly influenced by subtle changes of transforming growth factor-beta (TGF-β) superfamily, which is strongly influenced by RAS. TGF-β signaling mediate the phosphorylation of Smad family proteins. Phosphorylated Smads then translocate to the nucleus with the common-mediator (co-Smad) Smad4. Additionally, Smad activity is also regulated by phosphorylation through non-receptor kinases such as p42/44 mitogen activating protein kinase (MAPK) and p38 MAPK. In chronic wounds, failure of TGF-β Smad 2 and 3 phosphorylation and reduction in p42/44 MAPK activity was associated with a slower proliferative rate and impaired healing. RAS has been tightly linked to TGFβ activity but the specific effects of AT1R on the different Smads during wound healing are not known.

[14] = tested on: phosphorylated Smad1, 5 and 9; assay: as above; format: in vivo; conditions: pig wounds, vs placebo
From the text: as §2

[15] = tested on: Smad3; assay: as above; format: in vivo; conditions: pig wounds, vs placebo
From the text: as §2

[16] = tested on: Smad2; assay: as above; format: in vivo; conditions: pig wounds, vs placebo
From the text: as §2

[17] = in vivo; conditions: Yucatan miniature swine, pig
Protocol: Plasma standards and samples (50 μL) were extracted in 500 μL methanol containing 100 nM losartan (internal standard). Extracts were centrifuged at 16000×g for 5 minutes at 4° C. to precipitate proteins. Extracts (500 μL) were transferred to a new tube and dried in vacuum at 45° C. for 90 minutes. Samples were reconstituted in 30% acetonitrile in water (50 μL) and centrifuged as above. Supernatants (45 μL) were transferred to a 96 well plate. Analytes (10 μL) were separated on an Agilent 1290 UPLC system with a c18 column using a gradient run of 50-95% acetonitrile over 2 minutes at 0.4 mL/minute and detected on an Agilent 6520 QTOF mass spectrometer. Standards within the quantifiable range were used to generate a standard curve.
Prior to surgery (Day 0), Day 10 (pre-dose), Day 18 (pre-dose), and Day 57 (prior to termination); blood samples (3 mL/animal) were collected, processed to plasma by centrifuging for approximately 15 minutes at 3000 rpm at 4° C., transferred into labeled cryovials, immediately frozen on dry ice, and shipped to the sponsor for future analysis.

[18] = tested on: wound; assay: Diabetic mouse and pig wound models, timing of topical application (summary statements); format: in vivo; conditions: first 1-7 days after wounding
[19] = tested on: 5 cm full-thickness circular excisional wounds; assay: Wound healing in aged diabetic Yucatan miniature swine: digital photography, planimetry, image analysis; format: in vivo, Sus scrofa
Protocol: Both gels are applied daily. • Wound measurements: On a daily basis, planimetry and digital photography are conducted to assess changes in wound size. • Upon complete closure: Healed wound tissue is collected and analyzed. The study had two treatment groups, which consisted of a test article treatment or a vehicle control treatment on three diabetic (alloxan-induced) Yucatan miniature swine. The acclimation period was 7 days. On Day 0, each study animal underwent surgery to create 8 (4 per side) 5 cm full-thickness circular excisional wounds on their dorsal surface. All wounds were initially topically treated with the same (Treatment A) compound once daily for the first 7 days (Day 0 through Day 6). Thereafter, 4 wounds per animal received daily topical administration of Treatment B, and the other 4 wounds received Treatment C for the duration of the study. All wound sites (8 per animal) were covered with one dressing type. All wounds were observed/evaluated up through final sample collection (Day 57). The experimental study design, including treatment groups and wound sites/time points, and variables to be evaluated and intervals are presented in Tables 1 through 3. On Day 0, the dorso-lateral back area of each animal was closely clipped with electric clippers. Each animal was prepared for surgery using alternating disinfecting scrubs and isopropyl alcohol rinses. The surgical area was draped and a sufficiently large hole(s) was created within the drape(s). The proposed wound sites were outlined using a sterile template and sterile marker. […] Refer to FIG. 3. • a. Using a surgical blade, eight 5 cm full-thickness circular excisional wounds were created (down to the fat layer). All excised tissue from each wound site was discarded. • b. Direct pressure was utilized to obtain hemostasis. • c. […] Each animal was monitored until it had completely recovered from the anesthesia. […] Each animal was monitored until it had completely recovered from anesthesia (if employed). […]

CCCCC(=O)N(Cc1ccc(-c2ccccc2-c2nnn[nH]2)cc1)[C@H](C(=O)O)C(C)C [valsartan]
α-SMA [1]: increase | phosphorylated VEGF Receptor 2 [2]: increase | phosphorylation of p42/44 MAPK [3]: enhanced phosphorylation of p42/44 MAPK | zone of dermal collagen [4]: expanded zone of dermal collagen | dermal collagen layer thickness ([4]; P<0.001 vs placebo): 6±0.2 mm | epidermal layer thickness ([4]; P<0.001 vs placebo): 192±11 μm | collagen fiber arrangement (ultrastructural analysis) ([4]; vs placebo): more organized collagen fiber arrangement | wound healing / wound closure in AT2R^−/− mice [5]: delayed healing | AT2R mRNA [6]: statistically non-significant increase | mitochondrial Cox IV / mitochondrial numbers [7]: significant increase in the mitochondrial numbers | mitochondrial Cox IV / mitochondrial numbers ([7]; listed as topical Valsartan): increase in mitochondrial COX IV | wound healing / wound closure [8]: more efficacious in accelerating wound healing compared to losartan | tensile strength of healing skin [9]: higher tensile strength | tolerability / adverse animal health effects [10]: no observed adverse animal health effects | expected blood level of Valsartan in a human on oral Valsartan [11]: 4 to 5 µM | decrease in TGFβ3 mRNA [12]: 0.6 fold | Smad1 expression [13]: decrease in the expression | Smad1 expression ([13]; listed as topical Valsartan): inhibited | Smad1, 5, 9 phosphorylation [14]: decreased; also recorded: decrease in the expression | Smad3 expression [15]: higher expression | phosphorylated Smad3 [15]: higher expression | Smad3 expression ([15]; listed as topical Valsartan): activated | phosphorylated Smad3 ([15]; listed as topical Valsartan): increase in phosphorylated Smad3 | Smad2 expression [16]: decrease in the expression | Smad2 expression ([16]; listed as topical Valsartan): inhibited | concentration at 57 day [17]: < 1 nM | wound healing when applied during the inflammatory phase [18]: made the wounds bigger | wound healing when applied during the inflammatory phase ([18]; listed as topical valsartan): significantly impaired wound healing | epithelization (automated digital analysis of wound images) ([19]; aged diabetic pigs, vs placebo): higher rates of epithelization | slough at the wound base (automated digital analysis of wound images) ([19]; aged diabetic pigs, vs placebo): lower accumulation of slough at the wound base; also recorded: clearance of slough | healing rate / wound closure rate (planimetry) as compared to placebo ([19]; diabetic pigs, daily topical from Day 7, 57 days): faster wound closure rates
